In ChEMBL document CHEMBL1122438, “2-Phenylpyrazolo[1,5-a]pyrimidin-7-ones. A new class of nonsteroidal antiinflammatory drugs devoid of ulcerogenic activity” (J Med Chem, 1983):
The source made the active and inactive calls. The rule behind the calls is not given here.

What was measured:
Rattus norvegicus [1] = experiment: Percent reduction of edema in rat on 23rd day after oral administration of 300 mg/kg in antiarthritis assay; i = Inactive; format: functional, organism-based; set-up: dose 300 mg/kg; details: at 300 mg/kg
Mus musculus [2] = experiment: Percent reduction of edema in mice 3h after oral administration of 300 mg/kg in carrageenan model; format: functional
Mus musculus [3] = experiment: Analgesic activity evaluated by measuring % analgesic effect, after oral administration of 5 mg/kg in acetic acid writhing test; format: functional
Mus musculus [4] = experiment: Analgesic activity evaluated by measuring % analgesic effect, after oral administration of 15 mg/kg in acetic acid writhing test; format: functional
Mus musculus [5] = experiment: Analgesic activity evaluated by measuring % analgesic effect, after oral administration of 30 mg/kg in acetic acid writhing test; format: functional
Mus musculus [6] = experiment: Analgesic activity evaluated by measuring % analgesic effect, after oral administration of 0.3 mg/kg in acetic acid writhing test; format: functional
Mus musculus [7] = experiment: Acute toxicity was evaluated as number of mice (tested=7) died after 72nd hour when 200 mg/kg is administered intraperitoneally; format: organism-based; set-up: dose 200 mg/kg, route intraperitoneal; details: in vivo, ip
Mus musculus [8] = experiment: Acute toxicity was evaluated as number of mice (tested=7) died after 72nd hour when 250 mg/kg is administered intraperitoneally; format: organism-based; set-up: dose 250 mg/kg, route intraperitoneal; details: in vivo, ip
Mus musculus [9] = experiment: Acute toxicity was evaluated as number of mice (tested=7) died after 72nd hour when 260 mg/kg is administered intraperitoneally; format: organism-based; set-up: dose 260 mg/kg, route intraperitoneal; details: in vivo, ip
Mus musculus [10] = experiment: Acute toxicity was evaluated as number of mice (tested=7) died after 72nd hour when 270 mg/kg is administered intraperitoneally; format: organism-based; set-up: dose 270 mg/kg, route intraperitoneal; details: in vivo, ip
Mus musculus [11] = experiment: Acute toxicity was evaluated as number of mice (tested=7) died after 72nd hour when 280 mg/kg is administered intraperitoneally; format: organism-based; set-up: dose 280 mg/kg, route intraperitoneal; details: in vivo, ip
[12] = Toxic activity is expressed as LD50 values; format: toxicity, organism-based; details: mouse, in vivo
[13] = Therapeutic index was expressed as LD50/ED50 carragreenin model; details: mouse; read-out: TI
Mus musculus [14] = organism: Mus musculus; experiment: (§1) Analgesic activity in acetic acid writhing test, activity is expressed as ED50 values; format: functional
Rattus norvegicus [15] = organism: Rattus norvegicus; experiment: Antiinflammatory activity in carrageenan model, activity is expressed as ED50 values; format: functional
Rattus norvegicus [16] = experiment: Antiinflammatory activity evaluated by measuring % reduction of edema, 3h after oral administration of 25 mg/kg in carrageenan model; format: functional
Rattus norvegicus [17] = experiment: Antiinflammatory activity evaluated by measuring % reduction of edema, 3h after oral administration of 100 mg/kg in carrageenan model; format: functional
Rattus norvegicus [18] = experiment: Antiinflammatory activity evaluated by measuring % reduction of edema, 3h after oral administration of 10 mg/kg in carrageenan model; format: functional
Rattus norvegicus [19] = experiment: Percent reduction of edema in rat on 23rd day after oral administration of 30 mg/kg in antiarthritis assay; format: functional
Rattus norvegicus [20] = organism: Rattus norvegicus; experiment: Ulcer index of the compound; format: functional
Mus musculus [21] = experiment: Percent reduction of edema in mice 3h after oral administration of 17 mg/kg in carrageenan model; format: functional
Rattus norvegicus [22] = experiment: Percent reduction of edema in rat on 23rd day after oral administration of 30 mg/kg in antiarthritis assay; i = Inactive; format: functional, organism-based; set-up: dose 30 mg/kg; details: at 30 mg/kg
Mus musculus [23] = experiment: Percent reduction of edema in mice 3h after oral administration of 30 mg/kg in carrageenan model; format: functional
Mus musculus [24] = experiment: Percent reduction of edema in mice 3h after oral administration of 50 mg/kg in carrageenan model; format: functional
Rattus norvegicus [25] = experiment: Percent reduction of edema in rat on 23rd day after oral administration of 50 mg/kg in antiarthritis assay; i = Inactive; format: functional, organism-based; set-up: dose 50 mg/kg; details: at 50 mg/kg
Mus musculus [26] = experiment: Percent reduction of edema in mice 3h after oral administration of 20 mg/kg in carrageenan model; format: functional
Rattus norvegicus [27] = experiment: Percent reduction of edema in rat on 23rd day after oral administration of 20 mg/kg in antiarthritis assay; i = Inactive; format: functional, organism-based; set-up: dose 20 mg/kg; details: at 20 mg/kg
Rattus norvegicus [28] = organism: Rattus norvegicus; experiment: as §1; format: functional
Rattus norvegicus [29] = experiment: Antiinflammatory activity evaluated by measuring % reduction of edema, 3h after oral administration of 20 mg/kg in carrageenan model; format: functional
Rattus norvegicus [30] = experiment: Antiinflammatory activity evaluated by measuring % reduction of edema, 3h after oral administration of 30 mg/kg in carrageenan model; format: functional
Rattus norvegicus [31] = experiment: Antiinflammatory activity evaluated by measuring % reduction of edema, 3h after oral administration of 50 mg/kg in carrageenan model; format: functional
Rattus norvegicus [32] = experiment: Percent reduction of edema in rat on 23rd day after oral administration of 20 mg/kg in antiarthritis assay; format: functional

**Q.** For `Cc1cn(C)c2cc(-c3ccccc3)nn2c1=O`, which Reduction (Rattus norvegicus [1]) is on record?
**A.** inactive

**Q.** And the Reduction (Mus musculus [2])?
**A.** 68.7%

**Q.** For `CCn1ccc(=O)n2nc(-c3ccccc3)cc12`, which Analgesic effect (Mus musculus [3]) is on record?
**A.** 24.5%

**Q.** And the Analgesic effect (Mus musculus [4])?
**A.** 69.3%

**Q.** What about the Analgesic effect (Mus musculus [5]) of the same molecule?
**A.** 84.3%

**Q.** What about the Analgesic effect (Mus musculus [6]) of the same molecule?
**A.** 20%

**Q.** What about the Acute toxicity (Mus musculus [7]) of the same molecule?
**A.** 0

**Q.** And the Acute toxicity (Mus musculus [8])?
**A.** 1

**Q.** What about the Acute toxicity (Mus musculus [9]) of the same molecule?
**A.** 2

**Q.** And the Acute toxicity (Mus musculus [10])?
**A.** 3

**Q.** And the Acute toxicity (Mus musculus [11])?
**A.** 5

**Q.** And the LD50 [12]?
**A.** 271 mg/kg

**Q.** And the selectivity ratio [13]?
**A.** 37.1

**Q.** What about the ED50 (Mus musculus [14]) of the same molecule?
**A.** 9.86 mg/kg

**Q.** And the ED50 (Rattus norvegicus [15])?
**A.** 7.3 mg/kg

**Q.** And the Reduction (Rattus norvegicus [16])?
**A.** 69.8%

**Q.** And the Reduction (Rattus norvegicus [17])?
**A.** 90.1%

**Q.** What about the Reduction (Rattus norvegicus [18]) of the same molecule?
**A.** 54.1%

**Q.** What about the Reduction (Rattus norvegicus [19]) of the same molecule?
**A.** 42.7%

**Q.** What about the UI (Rattus norvegicus [20]) of the same molecule?
**A.** 0.15

**Q.** And the Reduction (Mus musculus [21])?
**A.** 54.1%

**Q.** What does the source list for `CCCn1c(=O)ccn2nc(-c3ccccc3)cc12`?
**A.** Reduction (Rattus norvegicus [22]): inactive; Reduction (Mus musculus [23]): 18.9%

**Q.** Which results are given for `CCn1ccc(=O)n2nc(-c3ccccc3)c(N=O)c12`?
**A.** Reduction (Rattus norvegicus [22]): inactive; Reduction (Mus musculus [23]): 7.03%

**Q.** With `Cc1cc(=O)n2nc(-c3ccccc3)cc2n1C` as the molecule, how does the Reduction (Mus musculus [24]) read?
**A.** 56.7%

**Q.** And the Reduction (Rattus norvegicus [25])?
**A.** inactive

**Q.** Which Reduction (Mus musculus [26]) does the source give for `Cn1ccc(=O)n2nccc12` here?
**A.** 0%

**Q.** And the Reduction (Rattus norvegicus [27])?
**A.** inactive

**Q.** With `CCn1ccc(=O)n2nc(-c3ccccc3)c(Br)c12` as the molecule, how does the Reduction (Rattus norvegicus [22]) read?
**A.** inactive

**Q.** And the Reduction (Mus musculus [23])?
**A.** 40.5%

**Q.** For `CCCn1ccc(=O)n2nc(-c3ccccc3)cc12`, which ED50 (Rattus norvegicus [28]) is on record?
**A.** 29.8 mg/kg

**Q.** What about the Reduction (Rattus norvegicus [29]) of the same molecule?
**A.** 31.9%

**Q.** And the Reduction (Rattus norvegicus [30])?
**A.** 52%

**Q.** And the Reduction (Rattus norvegicus [31])?
**A.** 70.8%

**Q.** And the Reduction (Rattus norvegicus [19])?
**A.** 33%

**Q.** And the Reduction (Mus musculus [23])?
**A.** 52.1%

**Q.** With `O=c1ccn(Cc2ccccc2)c2cc(-c3ccccc3)nn12` as the molecule, how does the Reduction (Mus musculus [26]) read?
**A.** 5.8%

**Q.** And the Reduction (Rattus norvegicus [32])?
**A.** 18.2%

**Q.** With `CCn1ccc(=O)n2nc(-c3ccccc3)c(SC#N)c12` as the molecule, how does the Reduction (Rattus norvegicus [22]) read?
**A.** inactive

**Q.** What about the Reduction (Mus musculus [23]) of the same molecule?
**A.** 42.2%

**Q.** With `CCn1cc(Br)c(=O)n2nc(-c3ccccc3)c(Br)c12` as the molecule, how does the Reduction (Rattus norvegicus [22]) read?
**A.** inactive

**Q.** What about the Reduction (Mus musculus [23]) of the same molecule?
**A.** 0%

**Q.** With `CCOC(=O)/C=C/n1ccc(=O)n2nc(-c3ccccc3)cc12` as the molecule, how does the Reduction (Rattus norvegicus [22]) read?
**A.** inactive

**Q.** And the Reduction (Mus musculus [23])?
**A.** 23.4%
